Results taken from patent publication US20240254082A1, “Substituted Isoindoline-1, 3-diketone PDE4 Inhibitor and Pharmaceutical Application Thereof” (SUZHOU INTRAGRAND PHARMA CO., LTD, priority 2021, published 2024).

What was measured:
Assay type in all cases: biochemical
PDE4D3 = PDE4D3 (Homo sapiens, UniProt Q08499); assay: Inhibition assay of PDE4D3 enzyme (TR-FRET kit)
Protocol: 2. Inhibition assay of PDE4D3 enzyme:
(§1) Materials and Instruments:
FAM substrate: A stock solution of 20 μM FAM substrate was diluted to 200 nM with PDE assay buffer. 12.5 μL of the diluted substrate was added to each reaction well.
(§2) 5 μL of the compound stock solution was added to 45 μL of DMSO to prepare a 1 mM diluent. 5 μL of the 1 mM diluent was added to 45 μL of PDE assay buffer to prepare a gradient dilution starting point. Then, according to the method of adding 5 μL of the previous concentration solution to 15 μL of PDE assay buffer, gradient dilution was carried out for 9 times to prepare compound working solutions with 10 concentrations. The working solutions were added to compound wells at 2.5 μL/well.
PDE4D3: 0.054 μL of a PDE4D3 recombinase stock solution was added to 1500 μL of PDE buffer, and the mixture was added to all compound wells and positive control wells at 10 μL/well. 10 μL of PDE assay buffer was added to substrate control wells.
Binding solution: 3750 μL of binding buffer A and 3750 μL of binding buffer B were mixed well. Then, 150 μL of a binder was added into the mixture and mixed well. 7.5 μL of a Tb donor was added and mixed well. The obtained mixture was added to all wells at 50 μL/well.
S520=Read value of sample 520 nm
S490=Read value of sample 490 nm
Tb520=Read value of Tb only 520 nm
Tb490=Read value of Tb only 490 nm
FRETp=Positive control FRET
FRETsub=Substrate control FRET.

PDE4A1 = molecular target: T1, PDE4A1 (Homo sapiens, UniProt P27815); assay: Inhibition assay of PDE4A1 enzyme (FP kit)
T1 construct: purchased BPS 60340
T1 sequence (P27815 1-647 isoform P27815-4): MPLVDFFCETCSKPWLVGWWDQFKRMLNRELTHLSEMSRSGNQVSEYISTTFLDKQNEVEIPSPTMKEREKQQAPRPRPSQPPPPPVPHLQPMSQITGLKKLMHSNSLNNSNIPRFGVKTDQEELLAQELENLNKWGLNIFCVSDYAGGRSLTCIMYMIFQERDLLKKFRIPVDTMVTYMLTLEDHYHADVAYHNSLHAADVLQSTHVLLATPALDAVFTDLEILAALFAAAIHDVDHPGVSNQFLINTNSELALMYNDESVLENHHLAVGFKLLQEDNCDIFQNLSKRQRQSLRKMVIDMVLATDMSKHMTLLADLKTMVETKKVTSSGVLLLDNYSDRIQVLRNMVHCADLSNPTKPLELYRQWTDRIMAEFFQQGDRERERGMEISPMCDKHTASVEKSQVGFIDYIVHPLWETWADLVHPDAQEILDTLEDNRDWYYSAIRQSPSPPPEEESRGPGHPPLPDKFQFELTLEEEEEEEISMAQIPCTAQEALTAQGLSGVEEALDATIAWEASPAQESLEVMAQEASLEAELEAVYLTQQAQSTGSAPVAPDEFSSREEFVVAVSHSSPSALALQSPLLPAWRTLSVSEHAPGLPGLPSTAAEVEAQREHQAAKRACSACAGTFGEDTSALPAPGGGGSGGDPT
Protocol: 3. Inhibition assay of PDE4A1 enzyme:
as §1
(§3) FAM substrate: 25 μL of a FAM substrate stock solution was added into 2500 μL of PDE assay buffer. 25 μL of the diluted substrate was added to each reaction well.
as §2, with “5” for “2.5”
(§4) PDE4A1: First, a PDE4A1 stock solution was diluted by 100 times to a concentration of 4.9 ng/μL, 1.8 μL of the diluent was added to 2200 μL of PDE assay buffer, and the mixture was added to all compound wells and positive control wells at 20 μL/well. 20 μL of PDE assay buffer was added to substrate control wells.
Binding solution: 95 μL of binding buffer was added into 9.5 mL of binder diluent, and then mixed well. The obtained mixture was added to all wells at 100 μL/well.
(§5) FPsub=Substrate control FP.

PDE4B2 = molecular target: T2, PDE4B2 (Homo sapiens, UniProt Q07343); assay: Inhibition assay of PDE4B2 enzyme (FP kit)
T2 construct: purchased BPS 60343
T2 sequence (Q07343 1-564 isoform Q07343-2): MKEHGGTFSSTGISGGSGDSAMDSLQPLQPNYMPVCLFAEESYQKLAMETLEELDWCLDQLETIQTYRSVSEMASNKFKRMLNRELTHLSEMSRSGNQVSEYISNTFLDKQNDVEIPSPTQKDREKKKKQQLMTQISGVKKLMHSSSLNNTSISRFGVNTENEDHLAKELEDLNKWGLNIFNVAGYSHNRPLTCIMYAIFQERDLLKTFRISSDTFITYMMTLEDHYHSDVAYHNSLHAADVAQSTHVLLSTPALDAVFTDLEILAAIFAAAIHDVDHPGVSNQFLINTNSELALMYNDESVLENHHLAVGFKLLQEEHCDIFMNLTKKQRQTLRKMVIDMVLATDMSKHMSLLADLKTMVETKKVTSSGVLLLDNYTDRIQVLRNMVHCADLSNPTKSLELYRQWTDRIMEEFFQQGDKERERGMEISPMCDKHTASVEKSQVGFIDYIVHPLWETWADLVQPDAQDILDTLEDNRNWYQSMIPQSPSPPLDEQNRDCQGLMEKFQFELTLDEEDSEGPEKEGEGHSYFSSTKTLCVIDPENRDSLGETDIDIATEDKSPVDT
Protocol: 4. Inhibition assay of PDE4B2 enzyme:
as §1, §3
as §2, with “5” for “2.5”
as §4, with “PDE4B2:” for “PDE4A1:”, “PDE4B2” for “PDE4A1”, “5.2” for “4.9”, “3.2” for “1.8”
Binding solution: 95 μL of binder was added into 9.5 mL of binder diluent, and then mixed well. The obtained mixture was added to all wells at 100 μL/well.
as §5

PDE4C1 = molecular target: T3, PDE4C1 (Homo sapiens, UniProt Q08493); assay: Inhibition assay of PDE4C1 enzyme (FP kit)
T3 construct: purchased BPS 60384
Protocol: 5. Inhibition assay of PDE4C1 enzyme:
as §1
FAM substrate: 12.5 μL of a FAM substrate stock solution was added into 1250 μL of PDE assay buffer. 12.5 μL of the diluted substrate was added to each reaction well.
as §2
as §4, with “PDE4C1:” for “PDE4A1:”, “PDE4C1” for “PDE4A1”, “3.2” for “4.9”, “13.75” for “1.8”, “1100” for “2200”, “10” for “20”
Binding solution: 50 μL of binder was added into 5 mL of binder diluent, and then mixed well. The obtained mixture was added to all wells at 50 μL/well.
as §5

PDE1C = PDE1C (Homo sapiens, UniProt Q14123); assay: Selective inhibitory activity assay, PDE1C; conditions: read-out: Inhibition rate (%) of PDE1C
Sequence of PDE1C (Q14123 whole entry, species assumed): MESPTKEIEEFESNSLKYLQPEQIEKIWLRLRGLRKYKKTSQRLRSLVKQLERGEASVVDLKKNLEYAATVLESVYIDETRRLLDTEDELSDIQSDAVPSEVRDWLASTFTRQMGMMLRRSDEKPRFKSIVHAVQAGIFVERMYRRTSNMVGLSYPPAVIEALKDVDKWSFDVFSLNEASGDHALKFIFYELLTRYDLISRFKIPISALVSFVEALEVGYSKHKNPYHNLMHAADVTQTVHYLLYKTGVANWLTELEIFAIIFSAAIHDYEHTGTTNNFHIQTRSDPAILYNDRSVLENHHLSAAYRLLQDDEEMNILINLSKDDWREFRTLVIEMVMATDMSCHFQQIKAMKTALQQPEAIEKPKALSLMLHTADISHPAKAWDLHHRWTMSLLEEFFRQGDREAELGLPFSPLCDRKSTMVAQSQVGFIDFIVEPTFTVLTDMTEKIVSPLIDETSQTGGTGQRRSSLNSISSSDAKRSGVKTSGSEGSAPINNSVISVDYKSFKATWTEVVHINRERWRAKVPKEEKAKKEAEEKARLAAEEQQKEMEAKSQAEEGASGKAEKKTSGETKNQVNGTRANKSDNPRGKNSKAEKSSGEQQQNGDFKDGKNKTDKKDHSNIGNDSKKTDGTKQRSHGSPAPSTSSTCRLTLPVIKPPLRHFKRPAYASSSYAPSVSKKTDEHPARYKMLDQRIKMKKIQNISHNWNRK
Protocol: (§6) 7. Selective inhibitory activity assay for PDE1, 2, 3, 5, 7, 10 and 11 enzymes
(§7) The selective specificity of compounds for PDE4 was assessed by assaying single concentrations of the compounds. For example, PDE1a enzyme, PDElc enzyme, PDE2a enzyme, PDE3a enzyme, PDE3b enzyme, PDE5a1 enzyme, PDE7a enzyme, PDE7b enzyme, PDE10a1 enzyme and PDE11a4 enzyme were tested. The selective inhibitory effects of different compounds on the enzymatic activities of PDEIC, PDE2A, PDE3B, PDE5A1, PDE7A, and PDE10A1 at concentrations of 10 μM and 1 μM, respectively, are shown in the table below: […]

PDE2A = PDE2A (Homo sapiens, UniProt O00408); assay: Selective inhibitory activity assay, PDE2A; conditions: read-out: Inhibition rate (%) of PDE2A
Sequence of PDE2A (O00408 whole entry, species assumed): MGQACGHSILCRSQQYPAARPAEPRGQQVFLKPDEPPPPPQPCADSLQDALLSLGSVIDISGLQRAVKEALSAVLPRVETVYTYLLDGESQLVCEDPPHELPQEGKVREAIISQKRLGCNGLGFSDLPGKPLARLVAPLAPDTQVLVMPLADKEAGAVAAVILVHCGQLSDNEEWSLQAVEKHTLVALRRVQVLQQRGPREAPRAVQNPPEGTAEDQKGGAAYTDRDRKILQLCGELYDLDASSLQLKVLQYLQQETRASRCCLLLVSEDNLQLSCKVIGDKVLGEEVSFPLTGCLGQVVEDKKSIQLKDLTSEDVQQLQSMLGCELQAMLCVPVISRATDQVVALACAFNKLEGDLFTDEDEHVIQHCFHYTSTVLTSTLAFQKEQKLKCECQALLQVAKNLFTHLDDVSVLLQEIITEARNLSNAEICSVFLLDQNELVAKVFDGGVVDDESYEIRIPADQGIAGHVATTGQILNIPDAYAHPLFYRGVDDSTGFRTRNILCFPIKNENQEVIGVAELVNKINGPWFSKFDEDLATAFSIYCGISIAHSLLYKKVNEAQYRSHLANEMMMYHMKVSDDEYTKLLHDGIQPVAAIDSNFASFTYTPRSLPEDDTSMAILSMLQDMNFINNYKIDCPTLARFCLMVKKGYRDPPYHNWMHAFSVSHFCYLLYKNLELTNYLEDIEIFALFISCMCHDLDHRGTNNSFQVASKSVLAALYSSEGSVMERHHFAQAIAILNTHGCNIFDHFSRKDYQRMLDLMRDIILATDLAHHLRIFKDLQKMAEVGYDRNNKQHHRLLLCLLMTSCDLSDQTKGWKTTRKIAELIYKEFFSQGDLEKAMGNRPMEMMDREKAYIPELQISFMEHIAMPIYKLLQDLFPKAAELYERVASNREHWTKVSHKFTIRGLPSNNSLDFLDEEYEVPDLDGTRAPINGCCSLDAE
Protocol: as §6, §7

PDE3B = PDE3B (Homo sapiens, UniProt Q13370); assay: Selective inhibitory activity assay, PDE3B; conditions: read-out: Inhibition rate (%) of PDE3B
Sequence of PDE3B (Q13370 whole entry, species assumed): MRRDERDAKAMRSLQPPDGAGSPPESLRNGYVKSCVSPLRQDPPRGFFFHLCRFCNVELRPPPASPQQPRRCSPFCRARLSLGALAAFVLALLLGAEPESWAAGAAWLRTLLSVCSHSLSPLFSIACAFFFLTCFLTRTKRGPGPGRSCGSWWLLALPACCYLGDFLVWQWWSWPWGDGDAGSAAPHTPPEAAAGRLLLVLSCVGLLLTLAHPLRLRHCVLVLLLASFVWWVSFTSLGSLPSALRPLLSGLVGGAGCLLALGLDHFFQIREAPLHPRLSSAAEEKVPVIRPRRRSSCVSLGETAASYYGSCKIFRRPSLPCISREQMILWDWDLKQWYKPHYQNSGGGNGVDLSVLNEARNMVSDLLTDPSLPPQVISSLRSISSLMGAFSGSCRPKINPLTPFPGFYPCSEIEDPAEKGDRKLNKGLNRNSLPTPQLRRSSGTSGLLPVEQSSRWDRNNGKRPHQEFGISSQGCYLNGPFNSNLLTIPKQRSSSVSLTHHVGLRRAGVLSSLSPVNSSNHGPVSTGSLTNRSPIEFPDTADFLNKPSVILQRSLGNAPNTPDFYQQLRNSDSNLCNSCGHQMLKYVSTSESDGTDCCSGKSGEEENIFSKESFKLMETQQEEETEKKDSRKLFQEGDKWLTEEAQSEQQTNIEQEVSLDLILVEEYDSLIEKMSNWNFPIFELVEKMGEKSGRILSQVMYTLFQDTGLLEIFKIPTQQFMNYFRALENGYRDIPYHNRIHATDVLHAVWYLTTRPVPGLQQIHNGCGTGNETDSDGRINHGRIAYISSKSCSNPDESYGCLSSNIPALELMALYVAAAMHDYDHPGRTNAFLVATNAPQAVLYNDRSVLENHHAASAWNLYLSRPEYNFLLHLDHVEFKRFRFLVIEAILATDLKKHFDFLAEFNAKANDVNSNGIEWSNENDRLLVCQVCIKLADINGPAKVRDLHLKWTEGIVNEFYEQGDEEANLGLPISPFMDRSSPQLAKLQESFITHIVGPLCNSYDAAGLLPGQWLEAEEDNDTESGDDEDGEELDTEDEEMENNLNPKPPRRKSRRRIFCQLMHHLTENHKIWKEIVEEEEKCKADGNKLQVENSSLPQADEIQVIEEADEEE
Protocol: as §6, §7

PDE5A1 = PDE5A1 (Homo sapiens, UniProt O76074); assay: Selective inhibitory activity assay, PDE5A1; conditions: read-out: Inhibition rate (%) of PDE5A1
Protocol: as §6, §7

PDE7A = PDE7A (Homo sapiens, UniProt Q13946); assay: Selective inhibitory activity assay, PDE7A; conditions: read-out: Inhibition rate (%) of PDE7A
Sequence of PDE7A (Q13946 whole entry, species assumed): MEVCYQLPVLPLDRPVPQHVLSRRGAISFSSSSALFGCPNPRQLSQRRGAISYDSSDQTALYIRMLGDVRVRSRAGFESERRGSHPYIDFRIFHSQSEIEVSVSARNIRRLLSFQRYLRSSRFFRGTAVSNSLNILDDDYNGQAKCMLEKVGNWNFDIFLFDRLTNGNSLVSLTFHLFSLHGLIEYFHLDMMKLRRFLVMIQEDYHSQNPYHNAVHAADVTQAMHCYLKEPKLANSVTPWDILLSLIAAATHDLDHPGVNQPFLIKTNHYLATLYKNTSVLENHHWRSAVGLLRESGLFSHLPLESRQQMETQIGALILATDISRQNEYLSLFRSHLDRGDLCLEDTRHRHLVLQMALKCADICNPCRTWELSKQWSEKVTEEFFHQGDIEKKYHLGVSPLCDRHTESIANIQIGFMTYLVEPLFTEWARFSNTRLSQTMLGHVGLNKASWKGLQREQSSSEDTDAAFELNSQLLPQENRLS
Protocol: as §6, §7

PDE10A1 = PDE10A1 (Homo sapiens, UniProt Q9Y233); assay: Selective inhibitory activity assay, PDE10A1; conditions: read-out: Inhibition rate (%) of PDE10A1
Protocol: as §6, §7

Row | SMILES | IC50 (PDE4D3) [µM] | IC50 (PDE4A1) [µM] | IC50 (PDE4B2) [µM] | IC50 (PDE4C1) [µM] | inhibition at 1 µM (PDE1C) [%] | inhibition at 10 µM (PDE1C) [%] | inhibition at 1 µM (PDE2A) [%] | inhibition at 10 µM (PDE2A) [%] | inhibition at 1 µM (PDE3B) [%] | inhibition at 10 µM (PDE3B) [%] | inhibition at 1 µM (PDE5A1) [%] | inhibition at 10 µM (PDE5A1) [%] | inhibition at 1 µM (PDE7A) [%] | inhibition at 10 µM (PDE7A) [%] | inhibition at 1 µM (PDE10A1) [%] | inhibition at 10 µM (PDE10A1) [%]
1 | CCCCCc1ccc(NC(=O)CCCCl)c2c1C(=O)N([C@H](CS(C)(=O)=O)c1ccc(OC)c(OCC)c1)C2=O [Example 5, (S)-2-[1-(3-ethoxy-4-methoxyphenyl)-2-alkylsulfonylethyl]-4-(γ-chlorobutyramido)-7-pentyl isoindoline-1,3-diketone] | 0.01 to 0.05 | < 0.1 | < 0.1 | 0.2 to 0.5 | 8.26 | 30.8 | 0.83 | 9.01 | 0.06 | -0.69 | 0.66 | 8.39 | 0 | 1.94 | 2.21 | 5.46
2 | CCCCCc1ccc(NC(=O)CCl)c2c1C(=O)N([C@H](CS(C)(=O)=O)c1ccc(OC)c(OCC)c1)C2=O [Example 25, (S)-2-[1-(3-ethoxy-4-methoxyphenyl)-2-alkylsulfonylethyl]-4-(chloroacetamido)-7-pentyl isoindoline-1,3-diketone] | 0.01 to 0.05 | – | – | – | 3.89 | 33.8 | 20.4 | 13.4 | 0 | 0.19 | 0 | 8.17 | 4.98 | 24.6 | 3.02 | 11.1
3 | CCCC#Cc1ccc(NC(C)=O)c2c1C(=O)N([C@H](CS(C)(=O)=O)c1ccc(OC)c(OCC)c1)C2=O [Example 7] | 0.01 to 0.05 | – | – | – | 6.8 | 26.5 | 0.08 | 2.65 | 1.81 | 0.06 | 0 | -2.87 | 3.87 | 15.5 | 0 | 1.3
4 | C=CC(=O)Nc1ccc(CCCCC)c2c1C(=O)N([C@H](CS(C)(=O)=O)c1ccc(OC)c(OCC)c1)C2=O [Example 29, (S)-2-[1-(3-ethoxy-4-methoxyphenyl)-2-alkylsulfonylethyl]-4-acrylamido-7-pentyl isoindoline-1,3-diketone] | 0.005 to 0.01 | – | – | – | 4.13 | 26 | 7.19 | 15.8 | 0 | -1.94 | 5.72 | 13 | 17.4 | 19.9 | 0 | 16.1
5 | [2H]c1c([2H])c(NC(C)=O)c2c(c1CCCCC)C(=O)N([C@H](CS(C)(=O)=O)c1ccc(OC)c(OCC)c1)C2=O [Example 33] | < 0.005 | < 0.1 | < 0.1 | < 0.2 | – | – | – | – | – | – | – | – | – | – | – | –
6 | CCCCc1ccc(NC(=O)CCCCl)c2c1C(=O)N([C@H](CS(C)(=O)=O)c1ccc(OC)c(OCC)c1)C2=O [Example 27, (S)-2-[1-(3-ethoxy-4-methoxyphenyl)-2-alkylsulfonylethyl]-4-(γ-chlorobutyramido)-7-butyl isoindoline-1,3-diketone] | 0.01 to 0.05 | – | – | – | 12.1 | 67.5 | 0 | 8.1 | 0 | -1.31 | 0 | 8.14 | 2.21 | 14.7 | 11.9 | 1.01
7 | CCCCCc1ccc(NC(=O)CCCl)c2c1C(=O)N([C@H](CS(C)(=O)=O)c1ccc(OC)c(OCC)c1)C2=O [Example 24] | 0.01 to 0.05 | – | – | – | 3.89 | 34.5 | 0 | 7.79 | 0 | -0.81 | 0 | 11.5 | 0 | 4.15 | 6.04 | 11.4
8 | [2H]C([2H])(CCCC)c1ccc(NC(C)=O)c2c1C(=O)N([C@H](CS(C)(=O)=O)c1ccc(OC)c(OCC)c1)C2=O [Example 32] | < 0.005 | < 0.1 | < 0.1 | < 0.2 | – | – | – | – | – | – | – | – | – | – | – | –
9 | CCCCC(=O)c1ccc(NC(C)=O)c2c1C(=O)N([C@H](CS(C)(=O)=O)c1ccc(OC)c(OCC)c1)C2=O [Example 56] | 0.01 to 0.05 | < 0.1 | < 0.1 | 0.2 to 0.5 | – | – | – | – | – | – | – | – | – | – | – | –
10 | CCCCC(O)c1ccc(NC(C)=O)c2c1C(=O)N([C@H](CS(C)(=O)=O)c1ccc(OC)c(OCC)c1)C2=O (mixture of isomers) [Example 55] | < 0.005 | < 0.1 | < 0.1 | < 0.2 | – | – | – | – | – | – | – | – | – | – | – | –
11 | CCCCCc1ccc(NC(=O)CC)c2c1C(=O)N([C@H](CS(C)(=O)=O)c1ccc(OC)c(OCC)c1)C2=O [Example 13, (S)-2-[1-(3-ethoxy-4-methoxyphenyl)-2-alkylsulfonylethyl]-4-propanamido-7-pentyl isoindoline-1,3-diketone] | 0.01 to 0.05 | 0.1 to 0.2 | 0.1 to 0.2 | 0.2 to 0.5 | 5.34 | 51.7 | 0.08 | 13.8 | 3.31 | 0.94 | 14.1 | 20.3 | 0 | 9.96 | 16.3 | -26.7
